{
  "source": "patent US8765688B2",
  "about": "“Anti-dandruff compositions containing peptides” (priority 2007, dated 2014)",
  "key": {"[1]": {"system": "Escherichia coli", "experiment": "Long-term stability of P18 (2 weeks at 37° C.), detected through inhibition of the growth of Escherichia coli", "type": "cell-based", "conditions": "for optical density at 620 nm: 25 μM", "description": "The long-term stability of P18 was observed over a period of 2 weeks. For this, a 1 mM P18 solution in water was incubated at 37° C. over the entire period. At the start of the experiment and then on these two weeks, the antimicrobial activity was detected through inhibition of the growth of Escherichia coli. The growth medium used here was LB medium as complex medium. The medium comprised 10 g of trypton, 5 g of yeast extract and 10 g of NaCl per liter.\nThe growth test was carried out as follows: A shake flask of LB medium was inoculated with Escherichia coli and incubated overnight with shaking at 37° C. and 200 rpm. A 96-well microtiter plate was filled with in each case 100 μl of LB medium and inoculated with E. coli suspension of the overnight culture. The E. coli suspension was adjusted at the start of the experiment to an optical density, measured at 620 nm, of about 0.02. The concentrates of the P18 inhibitor solutions were 1 mM in water.\n(§1) The growth of the following mixtures was compared by measuring the optical density:\n(§2) E. coli suspension without the addition of an inhibitor.\nE. coli suspension and addition of an aqueous P18 solution with a final concentration of 25 μM. The aqueous P18 solution had been freshly prepared.\nE. coli suspension and addition of an aqueous P18 solution with a final concentration of 25 μM. The aqueous stock solution had been incubated for 2 weeks at 37° C.\nThe growth was observed over a period of 40 hours by measuring the optical density."}, "[2]": {"system": "E. coli cells", "experiment": "Biodegradability of P18: chymotrypsin digestion, then antimicrobial activity on E. coli cells", "type": "cell-based, Escherichia coli", "conditions": "for optical density at 620 nm in two independent experiments: aqueous P18 solution 10 μM, undigested, cell gives both experiments", "description": "Firstly, the peptide P18 was digested by adding chymotrypsin (from bovine pancreas, Sigma). For this, a 1 mM P18 solution was prepared and treated in accordance with the manufacturer's instructions. The samples were incubated for 16 hours at 37° C. The negative control used was a sample of a P18 solution without addition of chymotrypsin or a control solution which comprised only chymotrypsin, but no P18. The antimicrobial activity of P18 on E. coli cells was then investigated. The test was carried out as described in Example 3.\nas §1, §2\nE. coli suspension and addition of an aqueous P18 solution with a final concentration of 10 μM. The P18 solution had been stored beforehand for 16 hours at 37° C.\nE. coli suspension and addition of an aqueous P18 solution with a final concentration of 10 μM. The P18 solution had been stored beforehand in accordance with the manufacturer's instructions for 16 hours at 37° C. and treated with chymotrypsin.\nE. coli suspension and addition of an aqueous chymotrypsin solution which comprised, as control, the same amount of chymotrypsin as the P18 solution which was digested with chymotrypsin. This solution too had been stored beforehand for 16 hours at 37° C. This mixture was chosen in order to exclude an antimicrobial effect of the chymotrypsin.\nThe growth was observed over a period of 16 hours by measuring the optical density."}, "[3]": {"system": "Malassezia furfur", "experiment": "Long-term stability of P18 (12 weeks at 37° C.) tested on Malassezia furfur, CFU", "type": "cell-based", "conditions": "for colony-forming units: mean ± SD", "description": "Since storage over longer time periods may be necessary, in the following a 1 mM P18 peptide solution (P18 sequence H-KWKLFKKIPKFLHLAKKF-NH2; SEQ ID NO: 3) was stored for 12 weeks at 37° C. and the antifungal activity of the stored solution on Malassezia furfur was compared to the activity of a freshly prepared 1 mM P18 peptide solution. This was done through a growth test, which was carried out as follows:\n(§3) Growth medium: M472-Pityrosporum medium according to DSMZ\n(§4) The components were sterilized at 121° C., 1 bar superatmospheric pressure for 20 minutes.\n(§5) 2 g/L of olive oil (sterilized by filtration and, after autoclaving, added to the other components)\n(§6) Since it was a two-phase medium, the complete medium was treated with sonication in order to enlarge the phase boundary.\n(§7) For agar plates, if appropriate, 150 g/L of agar agar were added to the medium.\n(§8) The growth test was carried out as follows: A shake flask with M472-Pityrosporum medium was inoculated with M. furfur and incubated with shaking overnight at 30° C. and 200 rpm.\nA 96-well microtiter plate was filled with in each case 100 μl of M472-Pityrosporum medium and inoculated with M. furfur suspension of the overnight culture. The M. furfur suspension was adjusted at the start of the experiment to an optical density, measured at 600 nm, of 0.02. The concentrates of the inhibitor solutions were 1 mM in water.\nThe growth of the following batches was compared:\nM. furfur suspension without the addition of an inhibitor.\nM. furfur suspension and addition of a fresh aqueous P18 solution with a final concentration of 50 μM.\nM. furfur suspension and addition of a fresh aqueous P18 solution with a final concentration of 25 μM.\nM. furfur suspension and addition of a P18 solution that had been stored at 37° C. for 12 weeks, with a final concentration of 50 μM.\nM. furfur suspension and addition of a P18 solution that had been stored at 37° C. for 12 weeks, with a final concentration of 25 μM.\nThe microtiter plate was incubated with shaking at 30° C.\nThe growth was observed over 24 hours by measuring the optical density. The colony-forming units (CFU) were then determined by plating out 1 μl and 5 μl from each of the suspensions and, after incubation for 6 days, counting the colonies. The CFU was determined in order to exclude an influence of the two-phase medium and also the growth form of M. furfur on the optical density. The experiments were carried out at least in triple determinations."}, "[4]": {"system": "Malassezia furfur", "experiment": "Effect of P18 variants against M. furfur, CFU after 24 hours at 50 μM", "type": "cell-based", "description": "The inhibitory effect of the following P18 variants against M. furfur was analyzed:\nThe experiments were carried out as follows:\nas §3, §4, §5, §6, §7, §8\nA 96-well microtiter plate was filled with in each case 100 μl of M472-Pityrosporum medium and inoculated with M. furfur suspension of the overnight culture. The M. furfur suspension was adjusted at the start of the experiment to an optical density, measured at 600 nm, of 0.1. […]\nAfter 24 hours, the colony-forming units (CFU were determined by plating out 10 μl from each of the suspensions and, after incubation for 6 days, counting the colonies. Two independent experiments with in each case three identical mixtures were carried out and the number of colony-forming units was averaged."}},
  "note": "Ends that are not written are not given here.",
  "data": [
    {"substance": "KWKLFKKIPKFLHLAKKF-NH2 [P18, KWKLFKKIPKFLHLAKKF-NH2]", "values": [
      {"measurement": "antimicrobial activity after storage (long-term stability)", "setting": "[1]; 1 mM solution in water, 2 weeks at 37° C.", "value": "unchanged"},
      {"measurement": "optical density at 620 nm", "setting": "[1]; fresh aqueous P18 solution, incubation time 0 h", "value": 0.098},
      {"measurement": "optical density at 620 nm", "setting": "[1]; fresh aqueous P18 solution, incubation time 16 h", "value": 0},
      {"measurement": "optical density at 620 nm", "setting": "[1]; fresh aqueous P18 solution, incubation time 24 h", "value": 0},
      {"measurement": "optical density at 620 nm", "setting": "[1]; fresh aqueous P18 solution, incubation time 40 h", "value": 0},
      {"measurement": "optical density at 620 nm", "setting": "[1]; stored aqueous P18 solution (2 weeks at 37° C.), incubation time 0 h", "value": 0.081},
      {"measurement": "optical density at 620 nm", "setting": "[1]; stored aqueous P18 solution (2 weeks at 37° C.), incubation time 16 h", "value": 0},
      {"measurement": "optical density at 620 nm", "setting": "[1]; stored aqueous P18 solution (2 weeks at 37° C.), incubation time 24 h", "value": 0},
      {"measurement": "optical density at 620 nm", "setting": "[1]; stored aqueous P18 solution (2 weeks at 37° C.), incubation time 40 h", "value": 0},
      {"measurement": "optical density at 620 nm in two independent experiments", "setting": "[2]; incubation time 0 h", "value": "0-0"},
      {"measurement": "optical density at 620 nm in two independent experiments", "setting": "[2]; incubation time 16 h", "value": "0.01-0.09"},
      {"measurement": "biodegradability (protease digestion)", "setting": "[2]; chymotrypsin, 16 hours at 37° C.", "value": "digestion of P18 with a serine protease, such as, for example, chymotrypsin, is possible"},
      {"measurement": "influence of storage on the activity of the P18 peptide solution", "setting": "[3]; 1 mM solution stored for 12 weeks at 37° C.", "value": "has not influenced the activity"},
      {"measurement": "colony-forming units", "setting": "[3]; aqueous P18 solution stored 12 weeks at 37° C., 25 μM final conc., incubation time 16-18 h", "value": "6 ± 7"},
      {"measurement": "colony-forming units", "setting": "[3]; aqueous P18 solution stored 12 weeks at 37° C., 25 μM final conc., incubation time 24 h", "value": "5 ± 5"},
      {"measurement": "colony-forming units", "setting": "[3]; aqueous P18 solution stored 12 weeks at 37° C., 50 μM final conc., incubation time 16-18 h", "value": "0 ± 0"},
      {"measurement": "colony-forming units", "setting": "[3]; aqueous P18 solution stored 12 weeks at 37° C., 50 μM final conc., incubation time 24 h", "value": "1 ± 1"},
      {"measurement": "colony-forming units", "setting": "[3]; fresh aqueous P18 solution, 25 μM final conc., incubation time 16-18 h", "value": "5 ± 8"},
      {"measurement": "colony-forming units", "setting": "[3]; fresh aqueous P18 solution, 25 μM final conc., incubation time 24 h", "value": "1 ± 2"},
      {"measurement": "colony-forming units", "setting": "[3]; fresh aqueous P18 solution, 50 μM final conc., incubation time 16-18 h", "value": "0 ± 0"},
      {"measurement": "colony-forming units", "setting": "[3]; fresh aqueous P18 solution, 50 μM final conc., incubation time 24 h", "value": "1 ± 1"},
      {"measurement": "Averaged number of colony-forming units (CFU)", "setting": "[4]; 50 μM peptide in DMSO", "value": 0},
      {"measurement": "inhibitory effect against M. furfur compared to DMSO", "setting": "[4]; 50 μM, effectiveness increasing in the order P18AC-OH, P18-OH, P18", "value": "increased inhibitory effect against M. furfur as compared to DMSO"}
    ]}
  ]
}
